Patent publication US20100273872A1, “USE OF 4-OXOBUTANOIC ACID DERIVATIVES IN THE TREATMENT OF PATHOLOGIES ASSOCIATED WITH IMMUNOLOGICAL DISORDERS” (priority 2007, published 2010)
Marks after values point to notes of the source that are not given here.

System: humoral immunity in rats (splenocytes producing anti-sheep erythrocyte antibodies)
Experiment: Direct haemolytic plaque (plaque-forming cells, PFC) test after immunisation with sheep erythrocytes
Assay type: in vivo, male Wistar rats
Settings: rat; for % inhibition: haemolytic plaques (PFC)
Method: The immunosuppressive activity was evaluated by studying the humoral immunity in rats through the quantification of direct haemolytic plaques (“plaque-forming cells”—PFC) after immunisation with sheep erythrocytes.
This technique consists in stimulating the immune system with an anti-genic agent, the sheep erythrocytes, and in evaluating the effect of a substance on the immune response. This immune response is evaluated by measuring the proportion of splenocytes that produce anti-sheep erythrocyte antibodies in the presence of a complement (Jerne N. K., 1974).
The effect of the compounds, in suspension in methylcellulose hydrogel (Sigma ref: M0512), on the immune system was evaluated in male Wistar rats after oral administration for 5 and 7 days (5 days before sensitisation and 2 days after). The administration volume was 10 ml/kg.
10 rats were used in each group, each group corresponding to a dose of a compound, plus a control group (blank) and a positive control group (reference substance). The reference substance used was cyclophosphamide (monohydrate) from Sigma (ref: C0768) at a dose of 20 mg/kg administrated subcutaneously at a rate of 1 ml/kg, only administrated on the fifth day. During the four previous days, the animals were treated with the compound vehicle (methylcellulose).
On the fifth day, one hour after treatment, the animals were sensitised with sheep erythrocytes administrated intravenously (caudal vein), at a rate of 0.5 ml per animal. The sheep erythrocytes were suspended at a concentration of 2×10^9 cells/ml in a sodium chloride solution (isotonic).
On the ninth day, i.e. 4 days after sensitisation, the spleen was removed after euthanasia by exsanguination (section of the abdominal aorta) of the animals, which were previously anaesthetised with pentobarbital (Sanofi, 60 mg/kg).
Half of the spleen was broken up (ground), giving, after preparation, a suspension of splenocytes in PBS buffer (Dulbecco Gibco Ref: 3018199) containing 10^7 cells per millilitre.
The haemolytic plaque (PFC) reaction was induced by addition of 50 microlitres of the splenocyte suspension obtained for each animal in 200 microlitres of a suspension of PBS comprising complement and sheep erythrocytes.
The mixture, placed between the slide (holder) and cover slip creating an evaluation chamber (40 μl) delimited by paraffin, was incubated for one hour at 37° C.
At the end of the incubation, the slides were immediately placed flat at 4° C. The evaluation was performed as soon as possible. The number of haemolytic plaques (PFC) was determined by a standardised method of slide evaluation using an optical microscope. A haemolytic plaque (PFC) is a plaque where only one trapped splenocyte can be observed. The number of haemolytic plaques (PFC) is calculated for 10^6 spleen cells.

Row | Compound | % inhibition (1st experiment, cyclophosphamide 20 mg/Kg subcutaneously, only on the fifth day) | % inhibition (2nd experiment, cyclophosphamide 20 mg/Kg subcutaneously, only on the fifth day) | % inhibition (1st experiment, 30 mg/Kg oral, treatment for 5 days before sensitisation) [%] | % inhibition (1st experiment, 100 mg/Kg oral, treatment for 5 days before sensitisation) | % inhibition (1st experiment, 300 mg/Kg oral, treatment for 5 days before sensitisation) | % inhibition (2nd experiment, 0.01 mg/Kg oral, treatment for 7 days (5 days before sensitisation and 2 days after)) [%] | % inhibition (2nd experiment, 0.1 mg/Kg oral, treatment for 7 days (5 days before sensitisation and 2 days after)) | % inhibition (2nd experiment, 1 mg/Kg oral, treatment for 7 days (5 days before sensitisation and 2 days after)) | dose giving a statistically significant decrease in the number of haemolytic plaques (PFC) (oral, decrease in the humoral immune response) [mg/kg] | effect in relation to the treatment phase (treatment before sensitisation only vs. also after sensitisation)
1 | O=P1(N(CCCl)CCCl)NCCCO1 (stereo not shown) [Cyclophosphamide, cyclophosphamide, reference compound] | 85** % | 54** % |  |  |  |  |  |  |  | 
2 | O=C(CC(Cc1ccccc1)C(=O)O)c1ccc(F)cc1 (single isomer, unassigned; (-)) [Molecule A, (−) 4-(4-Fluorophenyl)-4-oxo-2-phenylmethylbutanoic acid] |  |  | 3 | 19** % | 29** % | 0 | 43 * % | 42** % | ≥ 0.1 | stronger effect after the sensitisation phase
